Reference: ChEMBL document CHEMBL5550177, “Design and synthesis of matrine derivatives for anti myocardial ischemia-reperfusion injury by promoting angiogenesis” (Bioorg Med Chem, 2024)
Active and inactive are the calls of the source. The calls are words filed in the database; no cut-off is given here.

What was measured:
[1] = tested on: H9c2; assay: Cytotoxicity against rat H9c2 cells assessed as cell viability upto 20 uM incubated for 24 hrs by CCK-8 assay; type: toxicity, cell-based; conditions: h9c2, 24 h
[2] = tested on: H9c2; assay: Protection against H/R induced damage in rat H9c2 cells assessed as increase in cell viability at 1 to 20 umol/L preincubated for 2 hrs followed by hypoxic reoxygenation induction by CCK-8 assay (reference value: 45.1 +/- 2.1%); type: functional; conditions: dose 1-20 µmol/L; at 1 to 20 µM
[3] = tested on: H9c2; assay: Protection against H/R induced necrosis in rat H9c2 cells assessed as reduction in myocardial cell death preincubated with compound followed by hypoxic reoxygenation induction by Hoechst 33258/PI double staining based fluorescence microscopic analysis; type: functional; conditions: dose 5-20 µM
[4] = tested on: H9c2; assay: Protection against H/R induced necrosis in rat H9c2 cells assessed as reduction in myocardial cell death at 5 to 20 uM preincubated with compound followed by hypoxic reoxygenation induction by Hoechst 33258/PI double staining based fluorescence microscopic analysis; type: functional; conditions: dose 5-20 µM
[5] = tested on: H9c2; assay: Protection against H/R induced damage in rat H9c2 cells assessed as reduction in LDH level at 20 uM preincubated with compound followed by hypoxic reoxygenation induction; type: functional, cell-based
[6] = tested on: H9c2; assay: Protection against H/R induced damage in rat H9c2 cells assessed as reduction in CK-MB level at 20 uM preincubated with compound followed by hypoxic reoxygenation induction; type: functional, cell-based
[7] = tested on: H9c2; assay: Antioxidant activity against H/R induced damage in rat H9c2 cells assessed as increase in SOD level preincubated with compound followed by hypoxic reoxygenation induction; type: functional, cell-based; conditions: dose 5-20 µM
[8] = tested on: H9c2; assay: Antioxidant activity against H/R induced damage in rat H9c2 cells assessed as reduction in MDA level at 5 to 20 uM preincubated with compound followed by hypoxic reoxygenation induction; type: functional, cell-based; conditions: dose 5-20 µM
[9] = Toxicity in rat assessed as change in organ morphology at 20 to 100 mg/kg, iv measured after 14 days; type: organism-based; conditions: in vivo, 336 h, dose 20-100 mg/kg, time 14 day
[10] = Toxicity in rat assessed as change in organ color at 20 to 100 mg/kg, iv measured after 14 days; type: organism-based; conditions: in vivo, 336 h, dose 20-100 mg/kg, time 14 day
[11] = Toxicity in rat assessed as change in organ index at 20 to 100 mg/kg, iv measured after 14 days; type: organism-based; conditions: in vivo, 336 h, dose 20-100 mg/kg, time 14 day
[12] = tested on: Rattus norvegicus; assay: Cardioprotective activity in myocardial ischemia/reperfusion induced rat injury model assessed as improvement in damaged ventricular systolic function at 5 to 20 mg/kg, iv measured after 30 mins; type: functional, organism-based; conditions: dose 5-20 mg/kg
[13] = tested on: Rattus norvegicus; assay: Cardioprotective activity in myocardial ischemia/reperfusion induced rat injury model assessed as improvement in damaged left ventricular systolic pressure at 5 to 20 mg/kg, iv measured after 30 mins; type: functional, organism-based; conditions: dose 5-20 mg/kg
[14] = tested on: Rattus norvegicus; assay: Cardioprotective activity in myocardial ischemia/reperfusion induced rat injury model assessed as improvement in damaged left ventricular diastolic pressure at 5 to 20 mg/kg, iv measured after 30 mins; type: functional, organism-based; conditions: dose 5-20 mg/kg
[15] = tested on: Rattus norvegicus; assay: Cardioprotective activity in myocardial ischemia/reperfusion induced rat injury model assessed as prevention of average femoral artery blood pressure decrease at 5 to 20 mg/kg, iv measured after 30 mins; type: functional, organism-based; conditions: dose 5-20 mg/kg
[16] = tested on: Rattus norvegicus; assay: Cardioprotective activity in myocardial ischemia/reperfusion induced rat injury model assessed as prevention of heart rate decrease at 5 to 20 mg/kg, iv measured after 30 mins; type: functional, organism-based; conditions: dose 5-20 mg/kg
[17] = tested on: Rattus norvegicus; assay: Cardioprotective activity in iv dosed myocardial ischemia/reperfusion induced rat injury model assessed as reduction in area of infraction pretreated with compound followed by MI/R induction measured after 30 mins by TTC staining based assay; type: functional, organism-based; conditions: dose 5-20 mg/kg
[18] = tested on: Rattus norvegicus; assay: Cardioprotective activity in myocardial ischemia/reperfusion induced rat injury model assessed as improvement in cardiac injury at 5 to 20 mg/kg, iv pretreated with compound followed by MI/R induction measured after 30 mins by H and E staining based light microscopic analysis; type: functional, organism-based; conditions: dose 5-20 mg/kg
[19] = tested on: Rattus norvegicus; assay: Cardioprotective activity in myocardial ischemia/reperfusion induced rat injury model assessed as reduction in myocardial fiber disruption at 5 to 20 mg/kg, iv pretreated with compound followed by MI/R induction measured after 30 mins by H and E staining based light microscopic analysis; type: functional, organism-based; conditions: dose 5-20 mg/kg
[20] = tested on: Rattus norvegicus; assay: Cardioprotective activity in iv dosed myocardial ischemia/reperfusion induced rat injury model assessed as reduction in serum LDH level pretreated with compound followed by MI/R induction measured after 30 mins; type: functional, organism-based; conditions: dose 5-20 mg/kg
[21] = tested on: Rattus norvegicus; assay: Cardioprotective activity in iv dosed myocardial ischemia/reperfusion induced rat injury model assessed as reduction in serum CK-MB level pretreated with compound followed by MI/R induction measured after 30 mins; type: functional, organism-based; conditions: dose 5-20 mg/kg
[22] = tested on: Rattus norvegicus; assay: Antioxidant activity in myocardial ischemia/reperfusion induced rat injury model assessed as decrease in MDA level at 5 to 20 mg/kg, iv pretreated with compound followed by MI/R induction measured after 30 mins; type: functional, organism-based; conditions: dose 5-20 mg/kg
[23] = tested on: Rattus norvegicus; assay: Antioxidant activity in myocardial ischemia/reperfusion induced rat injury model assessed as increase in SOD level at 5 to 20 mg/kg, iv pretreated with compound followed by MI/R induction measured after 30 mins; type: functional, organism-based; conditions: dose 5-20 mg/kg
[24] = tested on: H9c2; assay: Cardioprotective activity against H/R induced damage in rat H9c2 cells assessed as upregulation of ADCY5 gene expression at 5 to 20 uM by RT-qPCR assay; type: functional, cell-based; conditions: dose 5-20 µM
[25] = tested on: H9c2; assay: Cardioprotective activity against H/R induced damage in rat H9c2 cells assessed as upregulation of CREB3L4 gene expression at 5 to 20 uM by RT-qPCR assay; type: functional, cell-based; conditions: dose 5-20 µM
[26] = tested on: H9c2; assay: Cardioprotective activity against H/R induced damage in rat H9c2 cells assessed as upregulation of VEGFA gene expression at 5 to 20 uM by RT-qPCR assay; type: functional, cell-based; conditions: dose 5-20 µM
[27] = tested on: H9c2; assay: Cardioprotective activity against H/R induced damage in rat H9c2 cells assessed as reduction in PP2B gene expression by RT-qPCR assay; type: functional, cell-based; conditions: dose 5-20 µM
[28] = tested on: H9c2; assay: Cardioprotective activity against H/R induced damage in rat H9c2 cells assessed as reduction in BNP gene expression by RT-qPCR assay; type: functional, cell-based; conditions: dose 5-20 µM
[29] = tested on: H9c2; assay: Cardioprotective activity against MI/R induced rat H9c2 cells assessed as upregulation of ADCY5 protein expression at 5 to 20 uM pretreated with compound followed by MI/R induction by Western blotting assay; type: functional, cell-based; conditions: dose 5-20 µM
[30] = tested on: H9c2; assay: Cardioprotective activity against MI/R induced rat H9c2 cells assessed as upregulation of CREB3L4 protein expression at 5 to 20 uM pretreated with compound followed by MI/R induction by Western blotting assay; type: functional, cell-based; conditions: dose 5-20 µM
[31] = tested on: H9c2; assay: Cardioprotective activity against MI/R induced rat H9c2 cells assessed as upregulation of VEGFA protein expression at 5 to 20 uM pretreated with compound followed by MI/R induction by Western blotting assay; type: functional, cell-based; conditions: dose 5-20 µM
[32] = tested on: H9c2; assay: Cardioprotective activity against MI/R induced rat H9c2 cells assessed as reduction in PP2B protein expression at 5 to 20 uM pretreated with compound followed by MI/R induction by Western blotting assay; type: functional, cell-based; conditions: dose 5-20 µM
[33] = tested on: H9c2; assay: Cardioprotective activity against MI/R induced rat H9c2 cells assessed as reduction in BNP protein expression at 5 to 20 uM pretreated with compound followed by MI/R induction by Western blotting assay; type: functional, cell-based; conditions: dose 5-20 µM
[34] = tested on: Chorioallantoic membrane; assay: Angiogenesis activity in chicken embryo chorioallantoic membrane assessed as increase in total number of blood vessels incubated for 132 hrs by CAM assay; type: functional, tissue-based; conditions: Gallus gallus
[35] = Drug accumulation in rat heart at 5 to 20 mg/kg, iv measured after 2 hrs by HPLC analysis; type: ADME, organism-based; conditions: in vivo, dose 5-20 mg/kg
[36] = tested on: H9c2; assay: Protection against H/R induced damage in rat H9c2 cells assessed as increase in cell viability at 1 to 20 umol/L preincubated for 2 hrs followed by hypoxic reoxygenation induction by CCK-8 assay; type: functional, cell-based; conditions: dose 1-20 µmol/L

Structure (SMILES): O=C(CCC[C@@H]1[C@H]2CCCN3CCC[C@@H](CN1Cc1ccccc1)[C@@H]23)Nc1cccnn1
- Activity [1]: Non-Toxic

Structure (SMILES): O=C1CCC[C@@H]2[C@H]3CCCN4CCC[C@@H](CN12)[C@@H]34 [MATRINE]
- Activity [1]: Non-Toxic

Structure (SMILES): O=C(CCC[C@@H]1[C@H]2CCCN3CCC[C@@H](CN1Cc1ccccc1)[C@@H]23)NC1CCC1
- Activity [1]: Non-Toxic

Structure (SMILES): O=C(CCC[C@@H]1[C@H]2CCCN3CCC[C@@H](CN1Cc1ccccc1)[C@@H]23)NCCc1ccc(O)cc1
- Activity [1]: Non-Toxic

Structure (SMILES): O=C(CCC[C@@H]1[C@H]2CCCN3CCC[C@@H](CN1Cc1ccccc1)[C@@H]23)NCCOCCOC(=O)c1sccc1Cl
- Activity [2]: 93.2%
- Activity [3]: Dose-Dependent Effect
- Activity [4]: Active
- Activity [5]: Active
- Activity [6]: Active
- Activity [7]: Dose-Dependent Effect
- Activity [8]: Active
- Activity [9]: Non-Toxic
- Activity [10]: Non-Toxic
- Activity [11]: Non-Toxic
- Activity [12]: Active
- Activity [13]: Active
- Activity [14]: Active
- Activity [15]: Active
- Activity [16]: Active
- Activity [17]: Dose-Dependent Effect
- Activity [18]: Active
- Activity [19]: Active
- Activity [20]: Dose-Dependent Effect
- Activity [21]: Dose-Dependent Effect
- Activity [22]: Active
- Activity [23]: Active
- Activity [24]: Active
- Activity [25]: Active
- Activity [26]: Active
- Activity [27]: Dose-Dependent Effect
- Activity [28]: Dose-Dependent Effect
- Activity [29]: Active
- Activity [30]: Active
- Activity [31]: Active
- Activity [32]: Active
- Activity [33]: Active
- Activity [34]: Active
- Drug uptake [35]: Active

Structure (SMILES): O=C(CCC[C@@H]1[C@H]2CCCN3CCC[C@@H](CN1Cc1ccccc1)[C@@H]23)NCCc1c[nH]c2ccccc12
- Activity [1]: Non-Toxic

Structure (SMILES): O=C(CCC[C@@H]1[C@H]2CCCN3CCC[C@@H](CN1Cc1ccccc1)[C@@H]23)NC1CCCCC1
- Activity [1]: Non-Toxic

Structure (SMILES): CC(C)NCC(O)COc1ccc(CC(N)=O)cc1 (configuration not stated)
- Activity [18]: Active
- Activity [19]: Active

Structure (SMILES): O=C(CCC[C@@H]1[C@H]2CCCN3CCC[C@@H](CN1Cc1ccccc1)[C@@H]23)NC1CC1
- Activity [1]: Non-Toxic

Structure (SMILES): CCOCCNC(=O)CCC[C@@H]1[C@H]2CCCN3CCC[C@@H](CN1Cc1ccccc1)[C@@H]23
- Activity [1]: Non-Toxic

Structure (SMILES): O=C(CCC[C@@H]1[C@H]2CCCN3CCC[C@@H](CN1Cc1ccccc1)[C@@H]23)NC1CCCC1
- Activity [1]: Non-Toxic

Structure (SMILES): O=C(CCC[C@@H]1[C@H]2CCCN3CCC[C@@H](CN1Cc1ccccc1)[C@@H]23)NCCC1=CC=CCC1=S
- Activity [1]: Non-Toxic

Structure (SMILES): O=C(CCC[C@@H]1[C@H]2CCCN3CCC[C@@H](CN1Cc1ccccc1)[C@@H]23)NCCOCCO
- Activity [36]: Active
